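Cells were grown in 96-well plates and exposed to each compound for 48 hours at five concentrations; endpoints were interpolated linearly between bracketing concentrations, or set to the highest concentration if not reached. At the TGI there is no net growth.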
How the values were obtained:
Experiment in all cases: growth of human tumour cells (NCI), 48 h
KM20L2 colon = test system: KM20L2 colon
K-562 leukemia = test system: K-562 leukemia
SNB-19 CNS = test system: SNB-19 CNS
RPMI-8226 leukemia = test system: RPMI-8226 leukemia
HCT-116 colon = test system: HCT-116 colon
NCI-H460 lung = test system: NCI-H460 lung
ACHN renal = test system: ACHN renal
MOLT-4 leukemia = test system: MOLT-4 leukemia
SK-MEL-2 melanoma = test system: SK-MEL-2 melanoma
M14 melanoma = test system: M14 melanoma
UO-31 renal = test system: UO-31 renal
TK-10 renal = test system: TK-10 renal
A498 renal = test system: A498 renal
UACC-257 melanoma = test system: UACC-257 melanoma
SNB-78 CNS = test system: SNB-78 CNS
IGROV1 ovarian = test system: IGROV1 ovarian
NCI-H226 lung = test system: NCI-H226 lung
A549 NSCLC = test system: A549 NSCLC
SF-539 CNS = test system: SF-539 CNS
RXF 393 renal = test system: RXF 393 renal
786-0 renal = test system: 786-0 renal
EKVX NSCLC = test system: EKVX NSCLC
DMS 114 small cell lung = test system: DMS 114 small cell lung
KM12 colon = test system: KM12 colon
HOP-92 NSCLC = test system: HOP-92 NSCLC
M19-MEL melanoma = test system: M19-MEL melanoma
HCC-2998 colon = test system: HCC-2998 colon
SK-MEL-28 melanoma = test system: SK-MEL-28 melanoma
HOP-18 NSCLC = test system: HOP-18 NSCLC
DLD-1 colon = test system: DLD-1 colon
OVCAR-3 ovarian = test system: OVCAR-3 ovarian
U251 CNS = test system: U251 CNS
SK-OV-3 ovarian = test system: SK-OV-3 ovarian
LOX IMVI melanoma = test system: LOX IMVI melanoma
MALME-3M melanoma = test system: MALME-3M melanoma
SN12C renal = test system: SN12C renal
XF 498 CNS = test system: XF 498 CNS
HT29 colon = test system: HT29 colon
LXFL 529 NSCLC = test system: LXFL 529 NSCLC
UACC-62 melanoma = test system: UACC-62 melanoma
OVCAR-8 ovarian = test system: OVCAR-8 ovarian
CCRF-CEM leukemia = test system: CCRF-CEM leukemia
HOP-62 NSCLC = test system: HOP-62 NSCLC
OVCAR-5 ovarian = test system: OVCAR-5 ovarian
SW-620 colon = test system: SW-620 colon
SF-295 CNS = test system: SF-295 CNS
SF-268 CNS = test system: SF-268 CNS
RXF-631 renal = test system: RXF-631 renal
HL-60(TB) leukemia = test system: HL-60(TB) leukemia
NCI-H23 lung = test system: NCI-H23 lung
NCI-H522 lung = test system: NCI-H522 lung
OVCAR-4 ovarian = test system: OVCAR-4 ovarian
COLO 205 colon = test system: COLO 205 colon
SK-MEL-5 melanoma = test system: SK-MEL-5 melanoma
SNB-75 CNS = test system: SNB-75 CNS
CAKI-1 renal = test system: CAKI-1 renal
SR leukemia = test system: SR leukemia
HCT-15 colon = test system: HCT-15 colon

Cc1ncc(CCl)c2c1OC(C)(C)OC2
TGI (KM20L2 colon): > 100 µM | TGI (K-562 leukemia): > 100 µM | TGI (SNB-19 CNS): > 100 µM | TGI (RPMI-8226 leukemia): > 100 µM | TGI (HCT-116 colon): 65.8 µM | TGI (NCI-H460 lung): > 100 µM | TGI (ACHN renal): 45.4 µM | TGI (MOLT-4 leukemia): > 100 µM | TGI (SK-MEL-2 melanoma): > 100 µM | TGI (M14 melanoma): > 100 µM | TGI (UO-31 renal): > 100 µM | TGI (TK-10 renal): > 100 µM | TGI (A498 renal): > 100 µM | TGI (UACC-257 melanoma): > 100 µM | TGI (SNB-78 CNS): > 100 µM | TGI (IGROV1 ovarian): > 100 µM | TGI (NCI-H226 lung): > 100 µM | TGI (A549 NSCLC): > 100 µM | TGI (SF-539 CNS): > 100 µM | TGI (RXF 393 renal): 29.5 µM | TGI (786-0 renal): 41.2 µM | TGI (EKVX NSCLC): 41.4 µM | TGI (DMS 114 small cell lung): > 100 µM | TGI (KM12 colon): > 100 µM | TGI (HOP-92 NSCLC): 73.1 µM | TGI (M19-MEL melanoma): > 100 µM | TGI (HCC-2998 colon): > 100 µM | TGI (SK-MEL-28 melanoma): 56.6 µM | TGI (HOP-18 NSCLC): 36 µM | TGI (DLD-1 colon): > 100 µM | TGI (OVCAR-3 ovarian): 69.7 µM | TGI (U251 CNS): 27.5 µM | TGI (SK-OV-3 ovarian): > 100 µM | TGI (LOX IMVI melanoma): 33.5 µM | TGI (MALME-3M melanoma): 37 µM | TGI (SN12C renal): > 100 µM | TGI (XF 498 CNS): > 100 µM | TGI (HT29 colon): > 100 µM | TGI (LXFL 529 NSCLC): > 100 µM | TGI (UACC-62 melanoma): > 100 µM | TGI (OVCAR-8 ovarian): > 100 µM | TGI (CCRF-CEM leukemia): > 100 µM | TGI (HOP-62 NSCLC): > 100 µM | TGI (OVCAR-5 ovarian): 40.3 µM | TGI (SW-620 colon): 34 µM | TGI (SF-295 CNS): > 100 µM | TGI (SF-268 CNS): 53.6 µM | TGI (RXF-631 renal): 73.9 µM | TGI (HL-60(TB) leukemia): 65.2 µM | TGI (NCI-H23 lung): > 100 µM | TGI (NCI-H522 lung): 32.6 µM | TGI (OVCAR-4 ovarian): 28.4 µM

CN1CC[C@]2(C)c3c(O)cccc3CC3CCCC1C32C (stereo not given in full)
TGI (KM20L2 colon): > 100 µM | TGI (K-562 leukemia): > 100 µM | TGI (SNB-19 CNS): > 100 µM | TGI (RPMI-8226 leukemia): > 100 µM | TGI (HCT-116 colon): > 100 µM | TGI (NCI-H460 lung): > 100 µM | TGI (ACHN renal): > 100 µM | TGI (COLO 205 colon): > 100 µM | TGI (MOLT-4 leukemia): > 100 µM | TGI (SK-MEL-2 melanoma): > 100 µM | TGI (M14 melanoma): > 100 µM | TGI (UO-31 renal): > 100 µM | TGI (TK-10 renal): > 100 µM | TGI (A498 renal): > 100 µM | TGI (SK-MEL-5 melanoma): > 100 µM | TGI (UACC-257 melanoma): > 100 µM | TGI (SNB-78 CNS): > 100 µM | TGI (IGROV1 ovarian): > 100 µM | TGI (NCI-H226 lung): > 100 µM | TGI (SNB-75 CNS): > 100 µM | TGI (A549 NSCLC): > 100 µM | TGI (SF-539 CNS): > 100 µM | TGI (RXF 393 renal): > 100 µM | TGI (786-0 renal): > 100 µM | TGI (EKVX NSCLC): > 100 µM | TGI (DMS 114 small cell lung): > 100 µM | TGI (KM12 colon): > 100 µM | TGI (HOP-92 NSCLC): > 100 µM | TGI (M19-MEL melanoma): > 100 µM | TGI (HCC-2998 colon): 72.7 µM | TGI (SK-MEL-28 melanoma): > 100 µM | TGI (HOP-18 NSCLC): > 100 µM | TGI (DLD-1 colon): > 100 µM | TGI (OVCAR-3 ovarian): > 100 µM | TGI (U251 CNS): > 100 µM | TGI (SK-OV-3 ovarian): > 100 µM | TGI (LOX IMVI melanoma): > 100 µM | TGI (CAKI-1 renal): > 100 µM | TGI (MALME-3M melanoma): > 100 µM | TGI (SN12C renal): > 100 µM | TGI (XF 498 CNS): > 100 µM | TGI (HT29 colon): > 100 µM | TGI (LXFL 529 NSCLC): > 100 µM | TGI (UACC-62 melanoma): > 100 µM | TGI (OVCAR-8 ovarian): > 100 µM | TGI (CCRF-CEM leukemia): > 100 µM | TGI (HOP-62 NSCLC): > 100 µM | TGI (SR leukemia): > 100 µM | TGI (OVCAR-5 ovarian): > 100 µM | TGI (SF-295 CNS): > 100 µM | TGI (SF-268 CNS): > 100 µM | TGI (RXF-631 renal): > 100 µM | TGI (HL-60(TB) leukemia): > 100 µM | TGI (NCI-H23 lung): > 100 µM | TGI (NCI-H522 lung): > 100 µM | TGI (HCT-15 colon): > 100 µM

CC1=NC(C(=O)O)Cc2c1[nH]c1ccccc21 (stereo not given)
TGI (KM20L2 colon): > 100 µM | TGI (K-562 leukemia): > 100 µM | TGI (SNB-19 CNS): > 100 µM | TGI (RPMI-8226 leukemia): > 100 µM | TGI (NCI-H460 lung): > 100 µM | TGI (ACHN renal): > 100 µM | TGI (COLO 205 colon): > 100 µM | TGI (MOLT-4 leukemia): > 100 µM | TGI (SK-MEL-2 melanoma): > 100 µM | TGI (M14 melanoma): > 100 µM | TGI (UO-31 renal): > 100 µM | TGI (TK-10 renal): > 100 µM | TGI (A498 renal): > 100 µM | TGI (SK-MEL-5 melanoma): > 100 µM | TGI (SNB-78 CNS): > 100 µM | TGI (IGROV1 ovarian): > 100 µM | TGI (NCI-H226 lung): > 100 µM | TGI (SNB-75 CNS): > 100 µM | TGI (SF-539 CNS): > 100 µM | TGI (EKVX NSCLC): > 100 µM | TGI (DMS 114 small cell lung): > 100 µM | TGI (HOP-92 NSCLC): > 100 µM | TGI (M19-MEL melanoma): > 100 µM | TGI (SK-MEL-28 melanoma): > 100 µM | TGI (HOP-18 NSCLC): > 100 µM | TGI (DLD-1 colon): > 100 µM | TGI (OVCAR-3 ovarian): > 100 µM | TGI (U251 CNS): > 100 µM | TGI (SK-OV-3 ovarian): > 100 µM | TGI (LOX IMVI melanoma): > 100 µM | TGI (CAKI-1 renal): > 100 µM | TGI (MALME-3M melanoma): > 100 µM | TGI (SN12C renal): > 100 µM | TGI (XF 498 CNS): > 100 µM | TGI (HT29 colon): > 100 µM | TGI (LXFL 529 NSCLC): > 100 µM | TGI (UACC-62 melanoma): > 100 µM | TGI (OVCAR-8 ovarian): > 100 µM | TGI (CCRF-CEM leukemia): > 100 µM | TGI (SW-620 colon): > 100 µM | TGI (SF-295 CNS): > 100 µM | TGI (SF-268 CNS): > 100 µM | TGI (RXF-631 renal): > 100 µM | TGI (HL-60(TB) leukemia): > 100 µM | TGI (NCI-H23 lung): > 100 µM | TGI (NCI-H522 lung): > 100 µM | TGI (HCT-15 colon): > 100 µM

Source: PubChem BioAssay (NCI)
